Where “and” joins values, the source holds several entries; their conditions need not be identical. Identical values can stand only once. Like-named read-outs stand apart in the source and are kept apart here.
Assays:
[1] = tested on: H129 hepatoma; assay: Syngenic orthotopic H129 hepatoma mouse model, survival; format: in vivo, C3H/HeN mice
From the text: C3H/HeN mice aged 10–12 weeks with an average weight of 25 g were used for this model and were obtained from Charles River (Sulzfeld, Germany). Experiments were initiated after an acclimatizing period of at least 8 days. Syngenic murine H129 hepatoma cells (obtained from Dr. V. Schmitz, University of Bonn, Germany) were cultivated in RPMI medium, containing 10% fetal calf serum (FCS) and 5% glutamine. Cells were harvested in a subconfluent state (70–80%), prepared for injection of 5×10^4 cells/20 μL in growth factor-free Matrigel, and transplanted in the left upper liver lobe. Animals with surgical failures were marked and excluded from the experiment. Treatment was initiated 4–5 days after transplantation. One set of mice received regorafenib 10 mg/kg once daily, vehicle solution once daily, or no treatment (n=8 per treatment group). […] Treatments were given orally via gavage. The vehicle solution contained 10% Transcutol, 10% Cremophor, and 80% 0.9% NaCl. Animals were weighed twice a week and monitored daily for behavior and wound healing. […] Due to ascites formation in the peritoneum (a symptom of the disease), body weight was not used as part of the assessment. Animals were dissected to assess the cause of death unless they had died in their cage overnight.
In the syngenic orthotopic H129 model, differences in survival times between groups were analyzed for significance using log-rank tests. Analysis of tumor volumes of the HCC-PDX models was performed with log2-transformed values on defined days of measurement based on the assumption of their log-normal distribution. […] All respective statistical test results were derived from a common linear model that allows for individual variances in the different groups. The adjustment for multiple testing was carried out using Šidák correction at a significance level of 0.05. […] Bead-based western data were analyzed (described in [15]) using the MEV 4.8.1 software package. […]

[2] = tested on: uHCC progressed on sorafenib treatment; parameters: method as in PMID 27932229; conditions: patients with uHCC who progressed on sorafenib, cited from earlier work
[3] = tested on: HCC-PDX model 189 xenografts; assay: DigiWest bead-based multiplex western blot of treated xenografts; format: in vivo, BALB/c nude mice; conditions: 24 hours after last dose, sorafenib 30 mg/kg/day
Protocol: For high-content Western analysis, DigiWest was performed as described by Treindl et al.. In brief, xenograft tissue was ground by a Mikro-Dismembrator (Sartorius) and subsequently lysed by the addition of 2× LDS lysis buffer (Life Technologies™) and heated to 95°C for 9 minutes with several vortexing steps. Undissolved material was removed by consecutive centrifugation at 20°C for 2 minutes at 300 x g, 5 minutes at 16,000 x g, and through a QIAshredder homogenizer tube (Qiagen) for 5 minutes at 16,000 x g. Protein concentration was determined by in-gel staining. 3 μL lysate was separated by SDS-PAGE stained with IRDye® Blue and detected with a Li-COR Odyssey Infrared Imaging System (Li-COR Biosciences, Bad Homburg, Germany) at 700 nm. Next, 12 μg protein per sample was separated using 4–12% Bis-Tris gels (Life Technologies™) according to the manufacturer’s instructions. Blotting onto PVDF membranes (Millipore) was performed under standard conditions. Proteins immobilized on the blotting membrane were biotinylated (NHS-PEG12-Biotin, Thermo Scientific) and individual sample lanes were cut into 96 strips each (height 0.5 mm each, strip width 7.5 mm) using an electronic cutting tool (Silhouette SD). Each individual strip was placed in a separate well of a 96-well plate, and protein was eluted for 2 hours in 10 μL elution buffer (8 M urea, 1% Triton-X100 in 100 mM Tris-HCl, pH 9.5). After the addition of 90 μL of dilution buffer (5% BSA in PBS, 0.02% sodium azide, 0.05% Tween-20), 96 different Neutravidin-coated Luminex bead sets (40,000 beads/well) were added to the individual wells, and eluted biotinylated proteins were captured on the bead surface during overnight incubation. After incubation, the Luminex beads were pooled, washed, and stored in storage buffer (1% BSA, 0.05% Tween-20, 0.05% sodium azide in PBS) at 4°C.
For antibody incubation, an aliquot of the bead pool was transferred into an assay plate and 30 μL of diluted western blot antibody in assay buffer (Blocking Reagent, Roche Applied Science; 0.05% Tween 20, 0.02% sodium azide, 0.2% milk powder) was added per well. 116 antibody incubations on 12 samples were performed overnight at 4°C. For read-out, beads were washed twice with 100 μL of PBST before species-specific PE-labeled secondary antibodies (Jackson) were added in 30 μL of assay buffer for 1 hour. […]
DigiWest analysis was performed as previously described. In brief, data generated by the Luminex instrument were analyzed using a dedicated analysis tool that visualizes the fluorescent signals as bar graphs and identifies antibody-specific peaks. […] After background correction, specific signal intensities are calculated as the integral of the identified peak.

[4] = tested on: unresectable HCC (uHCC); conditions: patients with uHCC; placebo 7.9 months; cited from earlier work
[5] = tested on: unresectable HCC (uHCC); conditions: placebo 4.2 months; cited from earlier work

CNC(=O)c1cc(Oc2ccc(NC(=O)Nc3ccc(Cl)c(C(F)(F)F)c3)c(F)c2)ccn1 [Regorafenib]
Median survival, days (95% CI) ([1]; regorafenib 10 mg/kg/day oral, start 4–5 days after implantation, vehicle 27 days): 36 (31, 38) days
Median survival, days (95% CI) ([1]; regorafenib 10 mg/kg/day oral, start 4–5 days after implantation, vehicle 27 days, listed as regorafenib): 36 days
Hazard ratio for OS vs placebo ([2]; 95% CI 0.50, 0.79): 0.63
Median OS ([2]; placebo 7.8 months): 10.6 months

CNC(=O)c1cc(Oc2ccc(NC(=O)Nc3ccc(Cl)c(C(F)(F)F)c3)cc2)ccn1 [Sorafenib]
Median survival, days (95% CI) ([1]; sorafenib 30 mg/kg/day oral, separate study, vehicle 28 days): 33 days and 33 (27, 35) days
FGF-1 protein expression vs vehicle [3]: downregulated
Full-length PARP protein expression vs vehicle [3]: significantly downregulated
Mst2 protein expression vs vehicle [3]: downregulated
cdc2-pY15 protein expression vs vehicle [3]: downregulated
Median OS [4]: 10.7 months
Median OS [5]: 6.5 months

Reference: paper PMC5739799 (Oncotarget, 2017)
